How the values were obtained:
[1] = Potentiometric titrations: protonation constants of the ligands; format: physicochemical; settings: 25.0° C., 0.10M KNO3
Procedure: Equipment and work conditions. The potentiometric setup has been described in Roger, M. et al. Inorg. Chem. 2013, 52, 5246-5259. The titrant was a KOH solution prepared at ca. 0.1 M from a commercial ampoule of analytical grade, and its accurate concentration was obtained by application of the Gran's method upon titration of a standard HNO3 solution (Rossotti, F. J. and Rossotti, H. J. J. Chem. Educ. 1965, 42, 375-378). Ligand solutions were prepared at about 2.0×10^−3 M, and the Cu^2+ and Zn^2+ solutions at ca. 0.05 M from analytical grade nitrate salts and standardized by complexometric titrations with H4edta (ethylenediaminetetraacetic acid). Sample solutions for titration contained approximately 0.04 mmol of ligand in a volume of 30 mL where the ionic strength was kept at 0.10 M using KNO3 as background electrolyte. Metal cations were added at 0.9 equiv. of the ligand amount in complexation titrations. Batch titrations were prepared in a similar way but with each titration point corresponding to 1/10 of the amount of a conventional titration sample. Batch titration points were incubated in tightly closed vials at 25° C. until potential measurements attained complete stability, which happened within a week.
Measurements. All measurements were carried out at 25.0±0.1° C. under inert atmosphere. The electromotive force of the sample solutions was measured after calibration of the electrodes by titration of a standard HNO3 solution at 2.0×10^−3 M in the work conditions. The [H^+] of the solutions was determined by measurement of the electromotive force of the cell, E=E^o′+Q log [H^+]+Ej. The term pH is defined as −log [H^+]. E^o′ and Q were determined from the acid region of the calibration curves. Deviations from the Nernst law at very low pH (pH<2.5) were corrected with the VLpH software (Calibration software from the maker of Hyperquad available for free at http://www.hyperquad.co.uk/), which performs a [H^+] correction based on a very low pH calibration procedure. The liquid-junction potential, Ej, was otherwise found to be negligible for pH >2.5 under the experimental conditions used. […] Each titration consisted of 80-100 equilibrium points in the range of pH 2.5-11.5 (or 1.5-11.5 for Cu^2+ complexations), and at least two replicate titrations were performed for each particular system.
Calculations. […] The errors quoted are the standard deviations calculated by the fitting program from all the experimental data for each system.
The protonation constants of Hcb-te1pa were studied in aqueous solution at 25.0° C. The compound has five basic centers consisting of the four amines and the carboxylate function, from which only two could be accurately determined by potentiometric titrations (Table 1). […]

[2] = Potentiometric titrations: stability constants and pM of Cu^2+ complexes; format: physicochemical
Procedure: Equipment and work conditions. The potentiometric setup has been described in Roger, M. et al. Inorg. […] Ligand solutions were prepared at about 2.0×10^−3 M, and the Cu^2+ and Zn^2+ solutions at ca. 0.05 M from analytical grade nitrate salts and standardized by complexometric titrations with H4edta (ethylenediaminetetraacetic acid). Sample solutions for titration contained approximately 0.04 mmol of ligand in a volume of 30 mL where the ionic strength was kept at 0.10 M using KNO3 as background electrolyte. Metal cations were added at 0.9 equiv. of the ligand amount in complexation titrations. Batch titrations were prepared in a similar way but with each titration point corresponding to 1/10 of the amount of a conventional titration sample.
Measurements. All measurements were carried out at 25.0±0.1° C. under inert atmosphere. The electromotive force of the sample solutions was measured after calibration of the electrodes by titration of a standard HNO3 solution at 2.0×10^−3 M in the work conditions. The [H^+] of the solutions was determined by measurement of the electromotive force of the cell, E=E^o′+Q log [H^+]+Ej. The term pH is defined as −log [H^+]. E^o′ and Q were determined from the acid region of the calibration curves. Deviations from the Nernst law at very low pH (pH<2.5) were corrected with the VLpH software (Calibration software from the maker of Hyperquad available for free at http://www.hyperquad.co.uk/), which performs a [H^+] correction based on a very low pH calibration procedure.
Calculations. The potentiometric data were refined with the Hyperquad software, and speciation diagrams were plotted using the HySS software. The overall equilibrium constants βi^H and βMmHhL1 are defined by βMmHhL1=[MmHhLl]/[M]^m[H]^h[L]^l (βi^H=[HhLl]/[H]^h[L]^l and βML-1L=βML(OH)×Kw). Differences in log units between the values of protonated (or hydrolysed) and non-protonated constants provide the stepwise (log K) reaction constants (being KMmHhL1=[MmHhLl]/[MmHh-1Ll][H]). The errors quoted are the standard deviations calculated by the fitting program from all the experimental data for each system.
The stability constants of the complexes formed by Hcb-te1pa with Cu^2+ and Zn^2+ were determined by potentiometric titrations in aqueous solution at 25.0° C. in 0.10 M KNO3 ionic strength (Table 2).
During titrations, each experimental point included a supplementary equilibration time in order to yield fully stabilized measurements. […] For this reason, batch titrations were prepared in the range of pH=4-6 and were left to equilibrate until full stabilization, while conventional titrations were used for the remaining pH regions.
For a correct comparison of the thermodynamic stability of the complexes of Hcb-te1pa with the corresponding values of other ligands from the literature, the pM values that take into account the variable basicity properties of different ligands were also calculated (Table 3). […] The thermodynamic stability is not the only important criterion to determine the efficiency of metal complexation because, depending on the application, other factors such as kinetic inertness or in vivo stability can be more important.

log βi^H, L + 2 H^+ ⇌ H2L [1]: 25.13(5) log units
log βi^H, L + 3 H^+ ⇌ H3L [1]: 27.56(5) log units
log βi^H, L + 4 H^+ ⇌ H4L [1]: <29.56 log units
log βi^H, L + H^+ ⇌ HL [1]: >15 log units
log KMLHh, Cu^2+ + L ⇌ CuL ([2]; 25.0° C., I = 0.10M KNO3): 26.00 log units
log βMLHh, Cu^2+ + L ⇌ CuL ([2]; 25.0° C., I = 0.10M KNO3): 26.00(5) log units
b) thermodynamic stability: log K[CuL] ([2]; overview table): 26.00
b) thermodynamic stability: pCu ([2]; overview table, calculated pM): 15.67
Calculated pM, Cu^2+ ([2]; pH = 7.4, 100% excess of ligand, [M^2+]tot = 1 × 10^−5 M): 15.67
Structure (SMILES): O=C(O)c1cccc(CN2CCCN3CCNCCCN(CC3)CC2)n1 [Hcb-te1pa, 6-(1,4,8,11-tetraazabicyclo[6.6.2]hexadecan-4-ylmethyl)picolinic acid]

Reference: patent publication US10434199B2, “Picolinate cross-bridged cyclams, chelates with metallic cations and use thereof” (UNIVERSITÉ DE BRETAGNE OCCIDENTALE, priority 2013, dated 2019)
